Measurements published in PMC9247443 (Frontiers in Pharmacology, 2022).
Values joined by “and” are separate entries in the source; they are usually repeats but may differ in a detail not shown here. Equal entries are not always repeated.

Key:
[1] = molecular target: T1, human S1P1 (Homo sapiens, UniProt P21453); test: [^3H]-ozanimod competition radioligand binding
Excerpt: (§1) Stable clones of Chinese hamster ovary (CHO) cells expressing human S1P1 and S1P5 were generated by transfecting the cells with the N-terminal hemagglutinin-tagged receptor in pcDNA3.1 expression vectors followed by antibiotic selection for S1P1 and S1P5 and picking of clones using cyclic adenosine monophosphate assay, fluorescence-activated flow cytometry using the associated tag as well as functional [^35S]-GTPγS binding assays. Stable clones of CHO cells expressing human S1P2, S1P3, and S1P4 with an N-terminal FLAG tag were purchased from Multispan, Inc. (Hayward, CA, United States; catalog numbers C1051-1, CG1049-1, and CG1052-1 for S1P2, S1P3, and S1P4, respectively). Cells were grown to confluence in adherent culture in 500-cm^2 culture trays before being detached with cell scraper in cell-lifting buffer (10 mM HEPES/154 mM NaCl/6.85 mM ethylenediaminetetraacetic acid [EDTA], pH 7.4) and pelleted by centrifugation for 5 min at 1000 rpm. Cell pellets were then resuspended and homogenized in membrane preparation buffer (10 mM HEPES/10 mM EDTA, pH 7.4) using a Polytron PT 1200E homogenizer (Kinematica, Luzern, Switzerland). To collect the membrane pellet, cell homogenates were centrifuged at 48,000 × g at 4°C for 30 min. After discarding the supernatant, the pellet was rehomogenized and recentrifuged as described above. The final pellet was collected and homogenized in ice-cold resuspension buffer (10 mM HEPES and 0.1 mM EDTA, pH 7.4).
(§2) Assay plates were sealed and incubated at room temperature with gentle agitation for 60 min before filtration as described above.
(§3) Data were again analyzed as raw counts per 60 s per well collected from the MicroBeta2 counter.

[2] = molecular target: T2, human S1P5 (Homo sapiens, UniProt Q9H228); test: [^3H]-ozanimod competition radioligand binding
T2 sequence (Q9H228 whole entry): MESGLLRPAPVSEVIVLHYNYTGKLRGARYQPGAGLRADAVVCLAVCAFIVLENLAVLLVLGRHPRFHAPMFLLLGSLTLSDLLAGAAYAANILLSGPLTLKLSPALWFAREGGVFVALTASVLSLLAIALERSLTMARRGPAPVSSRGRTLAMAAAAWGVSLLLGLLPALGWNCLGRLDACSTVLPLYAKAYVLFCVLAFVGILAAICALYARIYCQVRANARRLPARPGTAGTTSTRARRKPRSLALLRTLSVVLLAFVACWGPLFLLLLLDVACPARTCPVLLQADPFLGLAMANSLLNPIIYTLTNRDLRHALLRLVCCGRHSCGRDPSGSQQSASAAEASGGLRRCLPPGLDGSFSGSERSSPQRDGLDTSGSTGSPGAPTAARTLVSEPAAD
Excerpt: as §1, §2, §3

[3] = molecular target: T1, human S1P1; test: [^35S]-GTPγS binding; type: biochemical; details: mean ± SEM; for EC50: [^35S]-GTPγS binding, CHO cell membranes; for Human S1P1 IA: intrinsic activity relative to maximal S1P response (100%)
Excerpt: as §1
(§4) To quantitate receptor activation and G protein coupling, [^35S]-GTPγS binding assays were performed in 96-well nonbinding surface plates (Corning, New York, New York, United States; catalog number 3604) in a final volume of 200 μl. Test compounds were serial diluted in DMSO directly to the assay plate using the Tecan D300E digital printer in a total volume of 0.4 μl. […] All wells were brought to a total volume of 40 μl with assay buffer, and the reaction was initiated by the addition of 120 μl/well of assay buffer containing a mixture of 40 μg/ml S1P1–S1P5 membranes, 5–50 μM GDP (5 μM for S1P2 and S1P4, 16.67 μM GDP for S1P1 and S1P5, and 50 μM for S1P3), and 2.5 mg/ml of WGA PVT SPA beads (Perkin Elmer catalog number RPNQ0001). Assay plates were sealed and incubated at room temperature with gentle agitation for 30 min before adding 40 μl/well of 5× [^35S]-GTPγS (200 p.m. final) (Perkin Elmer, catalog number NEG030X250UC) in basic assay buffer (20 mM HEPES/10 mM MgCl2/100 mM NaCl/1 mM EDTA, pH 7.4) and then plates were resealed for an additional 40-min incubation at room temperature with gentle agitation. The experiment was terminated by centrifugation of the plates at 1000 rpm for 3 min using an Eppendorf (Hamburg, Germany) 5810R centrifuge and read on the MicroBeta2 microplate scintillation counter. Data were analyzed as raw counts per 40 s per well as collected from the MicroBeta2 counter. Raw counts were analyzed with GraphPad Prism version 8.0.0 using nonlinear regression to generate concentration response curves.

[4] = molecular target: T3, human S1P2 (Homo sapiens, UniProt O95136); test: [^35S]-GTPγS binding; type: biochemical; details: mean ± SEM; for EC50: [^35S]-GTPγS binding, CHO cell membranes; for Human S1P2 IA: intrinsic activity relative to maximal S1P response (100%)
T3 construct: membrane preparation
T3 sequence (O95136 whole entry): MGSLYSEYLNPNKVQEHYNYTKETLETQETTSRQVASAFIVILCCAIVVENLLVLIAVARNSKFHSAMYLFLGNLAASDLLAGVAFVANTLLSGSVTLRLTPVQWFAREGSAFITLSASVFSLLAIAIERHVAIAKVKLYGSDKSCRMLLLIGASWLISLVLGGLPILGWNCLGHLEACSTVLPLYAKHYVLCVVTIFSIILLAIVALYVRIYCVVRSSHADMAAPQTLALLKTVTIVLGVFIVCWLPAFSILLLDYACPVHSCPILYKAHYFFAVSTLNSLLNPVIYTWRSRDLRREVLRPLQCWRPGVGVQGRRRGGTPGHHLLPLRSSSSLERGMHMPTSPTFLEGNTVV
Excerpt: as §1, §4

[5] = molecular target: T4, human S1P3 (Homo sapiens, UniProt Q99500); test: [^35S]-GTPγS binding; type: biochemical; details: mean ± SEM; for EC50: [^35S]-GTPγS binding, CHO cell membranes; for Human S1P3 IA: intrinsic activity relative to maximal S1P response (100%)
T4 construct: membrane preparation
T4 sequence (Q99500 whole entry): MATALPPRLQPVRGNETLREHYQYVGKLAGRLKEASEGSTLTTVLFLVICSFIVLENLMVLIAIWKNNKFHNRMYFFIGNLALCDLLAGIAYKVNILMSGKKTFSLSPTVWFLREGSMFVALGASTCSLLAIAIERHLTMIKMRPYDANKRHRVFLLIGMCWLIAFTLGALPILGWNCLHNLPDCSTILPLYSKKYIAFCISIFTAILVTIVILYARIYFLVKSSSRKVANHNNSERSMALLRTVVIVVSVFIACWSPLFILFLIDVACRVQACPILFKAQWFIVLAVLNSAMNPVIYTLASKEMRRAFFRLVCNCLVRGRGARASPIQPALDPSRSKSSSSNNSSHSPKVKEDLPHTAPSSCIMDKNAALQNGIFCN
Excerpt: as §1, §4

[6] = molecular target: T5, human S1P4 (Homo sapiens, UniProt O95977); test: [^35S]-GTPγS binding; type: biochemical; details: mean ± SEM; for EC50: [^35S]-GTPγS binding, CHO cell membranes; for Human S1P4 IA: intrinsic activity relative to maximal S1P response (100%)
T5 construct: membrane preparation
T5 sequence (O95977 1-384): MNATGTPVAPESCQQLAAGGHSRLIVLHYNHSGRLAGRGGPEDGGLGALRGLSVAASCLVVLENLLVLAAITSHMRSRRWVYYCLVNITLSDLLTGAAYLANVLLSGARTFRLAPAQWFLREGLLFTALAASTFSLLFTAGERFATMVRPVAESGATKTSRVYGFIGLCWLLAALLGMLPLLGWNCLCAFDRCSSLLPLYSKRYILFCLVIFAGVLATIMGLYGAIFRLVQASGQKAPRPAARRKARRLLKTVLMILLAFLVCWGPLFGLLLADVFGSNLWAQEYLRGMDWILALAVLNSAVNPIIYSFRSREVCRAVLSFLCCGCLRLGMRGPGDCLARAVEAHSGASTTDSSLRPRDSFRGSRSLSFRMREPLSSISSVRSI
Excerpt: as §1, §4

[7] = molecular target: T2, human S1P5; test: [^35S]-GTPγS binding; type: biochemical; details: for EC50: [^35S]-GTPγS binding, CHO cell membranes; for EC50 / Human S1P5 IA: mean ± SEM; for Human S1P5 IA: intrinsic activity relative to maximal S1P response (100%); for GTPγS potency for human S1P5 weaker than that for S1P1: S1P5 versus S1P1 EC50
Excerpt: as §1, §4

[8] = molecular target: T1, human S1P1; test: S1P1-mediated β-arrestin recruitment assay (PathHunter eXpress EDG1 CHO-K1); type: cell-based; details: for Emax: CHO-K1, read-out: β-arrestin recruitment Intrinsic Activity, human S1P1; for EC50: EDG1(S1P1)/β-arrestin CHO-K1 cells, 90 min, mean ± SEM (n = 3–5) or SD (n = 2)
Procedure: Human S1P1 β-arrestin assays were carried out using the PathHunter® eXpress EDG1 CHO-K1 β-arrestin GPCR Assay (DiscoverX, Cat# 93-0207E2, including frozen cell stock, assay media, and assay plate). EDG1(S1P1)/β-arrestin CHO-K1 cells were thawed by adding 0.5 ml warm media to the vial. The cells were then transferred to 11.5 ml warm media, seeded at a density of 10,000 cells per well in a 96 well assay plate in a volume of 100 μL per well and incubated overnight in a 37°C CO2 incubator. […] Compounds were then added to the EDG1(S1P1)/β-arrestin CHO-K1 cells—10 μl per well of the 11X stock was added to the 100 ul per well of cells and the plate was incubated for 90 min in a 37°C CO2 incubator. The detection solution was prepared according to the manufacture’s protocol and 55 μl was added to each well of assay plate. The plate was then incubated for 1 h at room temperature before being read on a SpectraMax5 plate reader. Basal β-arrestin recruitment was determined using medium containing DMSO alone.

T1 sequence (P21453 whole entry): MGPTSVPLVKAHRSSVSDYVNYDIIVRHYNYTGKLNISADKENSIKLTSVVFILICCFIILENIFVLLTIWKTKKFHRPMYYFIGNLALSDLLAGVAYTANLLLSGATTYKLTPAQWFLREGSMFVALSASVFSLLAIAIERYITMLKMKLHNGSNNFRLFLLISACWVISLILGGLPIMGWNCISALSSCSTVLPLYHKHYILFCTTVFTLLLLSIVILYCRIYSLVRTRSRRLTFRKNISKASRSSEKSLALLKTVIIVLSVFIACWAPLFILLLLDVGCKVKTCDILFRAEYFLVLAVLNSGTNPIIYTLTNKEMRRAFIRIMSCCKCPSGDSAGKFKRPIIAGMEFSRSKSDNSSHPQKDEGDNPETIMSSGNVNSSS

SMILES | Ki [1] | Ki [2] | EC50 [3] | Human S1P1 IA [3] | EC50 [4] | Human S1P2 IA [4] | EC50 [5] | Human S1P3 IA [5] | EC50 [6] | Human S1P4 IA [6] | EC50 [7] | Human S1P5 IA [7] | Emax [8] | EC50 [8] | GTPγS potency for human S1P5 weaker than that for S1P1 [7] | Human S1P5 IA ([7]; listed as amiselimod-p) | displacement of specific [^3H]-ozanimod binding, S1P1 ([1]; result in words) | displacement of specific [^3H]-ozanimod binding, S1P5 ([2]; result in words)
NC(CO)(CCc1ccc(Sc2cccc(OCc3ccccc3)c2)cc1Cl)COP(=O)(O)O (centres unmarked) [KRP-203-p, KRP-203-phosphate] | 0.22 ± 0.02 nM | 0.24 ± 0.04 nM | 0.26 nM | 85.7 ± 3.6% | > 10000 nM | NR (NR indicates no response where the maximal response was less than 10% of that of S1P) | 3.17 ± 0.26 nM | 25.7 ± 3.8% | 3.13 ± 0.29 nM | 56.3 ± 3.8% | 0.69 ± 0.19 nM | 45.8 ± 7.6% | 72.3 ± 5.4% | 2.98 ± 0.96 nM |  |  |  | 
CCC/N=C1\S/C(=C\c2ccc(OC[C@H](O)CO)c(Cl)c2)C(=O)N1c1ccccc1C [Ponesimod] | 9.37 ± 1.31 nM | 17.4 ± 4.32 nM | 3.42 ± 1.17 nM | 85.8 ± 6.2% | > 10000 nM | NR (NR indicates no response where the maximal response was less than 10% of that of S1P) | 89.5 ± 14.3 nM | 82.1 ± 7.5% | > 10000 nM | 26.5 ± 2.5% | 43.2 ± 12 nM | 92.9 ± 9.8% | 61.2 ± 1.6% | 2.66 ± 0.42 nM | approximately 10 fold |  |  | 
CCCCCCCOc1ccc(CCC(N)(CO)COP(=O)(O)O)cc1C(F)(F)F (centres unmarked) [Amiselimod-p] | 0.13 ± 0.02 nM | 0.25 ± 0.04 nM | 0.15 ± 0.01 nM | 84.1 ± 1.6% | > 4000 nM | NR (NR indicates no response where the maximal response was less than 10% of that of S1P) | 19 ± 2.98 nM | 29.1 ± 1.6% | 2.23 ± 0.13 nM | 122.2 ± 3.6% | 0.58 ± 0.08 nM | 76.6 ± 6.9% | 76.1 ± 11.6% | 2.83 ± 2.21 nM |  | 76.6% |  | 
CC(C)Oc1ccc(-c2nc(-c3cccc4c3CC[C@@H]4NCCO)no2)cc1C#N [Ozanimod] |  | 1.93 ± 0.07 nM |  | 85 ± 1% | > 10000 nM | 34.8 ± 1% | > 1110 nM | 89.4 ± 7.4% | 1490 ± 306 nM | 39.4 ± 5.3% | 5.84 ± 0.51 nM | 97 ± 3.7% | 68.7 ± 3.5% |  | approximately 10 fold |  |  | 
CCCCCCCCc1ccc(CCC(N)(CO)COP(=O)(O)O)cc1 (centres unmarked) [FTY720-p, FTY720-phosphate] |  |  |  | 84.9 ± 2.3% |  | 33.2 ± 1% |  | 106.5 ± 8.3% | 2.06 ± 0.3 nM | 59.2 ± 5.4% |  | 74% and 74 ± 5.1% | 79.8 ± 4.3% |  |  |  |  | 
CCc1cc(/C(C)=N/OCc2ccc(C3CCCCC3)c(C(F)(F)F)c2)ccc1CN1CC(C(=O)O)C1 [Siponimod] | 0.74 ± 0.09 nM | 0.43 ± 0.08 nM | 0.46 ± 0.05 nM | 82.1 ± 0.9% | > 10000 nM | NR (NR indicates no response where the maximal response was less than 10% of that of S1P) | > 1110 nM | 90.7 ± 2.5% | 384 ± 67.8 nM | 81.5 ± 2.4% | 0.3 ± 0.02 nM | 102 ± 9.1% | 68.6 ± 9.2% | 9.3 ± 2.79 nM |  |  |  | 
CCCCCCCCCCCCC/C=C/[C@@H](O)[C@@H](N)COP(=O)(O)O [S1P, sphingosine 1-phosphate] | 2.33 ± 0.17 nM |  |  |  |  |  |  |  |  |  |  |  |  |  |  |  | completely displaced | completely displaced
O=C(O)C[C@H]1CCc2c1[nH]c1ccc(OCc3ccc(C4CCCC4)c(C(F)(F)F)c3)cc21 [Etrasimod] | 6.73 ± 0.62 nM | 16.3 ± 0.71 nM | 5.48 ± 0.46 nM | 86.6 ± 1.1% | > 10000 nM | NR (NR indicates no response where the maximal response was less than 10% of that of S1P) | 1160 ± 354 nM | 81.2 ± 17% | 1130 ± 189 nM | 40.4 ± 4.6% | 58.9 ± 6.75 nM | 82 ± 4.4% | 75.8 ± 1.8% | 11.3 ± 2.32 nM | approximately 10 fold |  |  | 
